Laboratory results from patent publication US10562850B2, “Human plasma kallikrein inhibitors” (priority 2015, dated 2020).
Each block holds one compound with its values, some of them ahead of it.

Molecular target: human plasma kallikrein (Homo sapiens (Human), UniProt P03952)
Test: Plasma Kallikrein Activity Assay (chromogenic substrate S2302)
Type: biochemical
Conditions: 2 nM kallikrein, 80 μM S2302, 30° C., pH 7.8; Cheng-Prusoff
Method: Plasma Kallikrein Activity Assay.
The effect of compounds of the invention on human plasma kallikrein activity was determined using the chromogenic substrates (DiaPharma Group, Inc., West Chester, Ohio, USA). In these experiments, 2 nM kallikrein (Enzyme Research Laboratories, South Bend, Ind., USA) was incubated with 80 μM S2302 (H-D-Pro-Phe-Arg-p-nitroaniline) in the absence or presence of increasing concentrations of compounds of the invention in a final volume of 200 μL Tris-HCl buffer (200 mM NaCl; 2.5 mM CaCl2; 50 mM Tris-HCl, pH 7.8).
After incubation at 30° C., the activity of kallikrein was measured as a change in absorbance at OD 405 nm using BioTek PowerWave X340 Microplate Reader (Winooski, Vt., USA). Data were analyzed using SigmaPlot software (Systat Software, Inc., San Jose, Calif., USA) (Four Parameter Logistic Curve). Ki values for the inhibitors were determined using the Cheng-Prusoff equation (Biochem. Pharmacol. 1973, 22, 3099).

Chain of human plasma kallikrein (P03952 391-638): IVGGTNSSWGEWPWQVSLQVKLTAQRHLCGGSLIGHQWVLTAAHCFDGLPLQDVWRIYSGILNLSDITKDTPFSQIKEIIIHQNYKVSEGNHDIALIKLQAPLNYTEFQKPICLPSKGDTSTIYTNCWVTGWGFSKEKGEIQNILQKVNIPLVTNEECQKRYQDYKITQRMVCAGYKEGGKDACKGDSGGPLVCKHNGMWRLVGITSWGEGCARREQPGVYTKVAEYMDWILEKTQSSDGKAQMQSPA
Chain of human plasma kallikrein (P03952 20-390 partner): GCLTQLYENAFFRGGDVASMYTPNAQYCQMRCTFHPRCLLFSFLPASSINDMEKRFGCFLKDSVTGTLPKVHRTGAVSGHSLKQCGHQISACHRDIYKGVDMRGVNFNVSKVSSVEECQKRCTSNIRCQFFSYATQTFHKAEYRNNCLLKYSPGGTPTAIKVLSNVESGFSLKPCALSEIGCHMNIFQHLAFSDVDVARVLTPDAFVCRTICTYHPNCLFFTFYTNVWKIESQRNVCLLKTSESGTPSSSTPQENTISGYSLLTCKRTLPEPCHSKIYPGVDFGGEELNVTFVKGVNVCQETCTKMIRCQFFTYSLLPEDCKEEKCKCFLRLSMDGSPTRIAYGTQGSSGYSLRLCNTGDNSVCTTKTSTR

Compound: N#Cc1cccc(C(N)(CCC2CC2)c2ccc(F)c(NC(=O)[C@@H]3C[C@H](O)CN3C(=O)Nc3ccc(Cl)cc3)c2)c1 (stereo partly drawn) [Compound 10c, (2S,4S)-N2-(5-((−)-1-amino-1-(3-cyanophenyl)-3-cyclopropylpropyl)-2-fluorophenyl)-N1-(4-chlorophenyl)-4-hydroxypyrrolidine-1,2-dicarboxamide]
Ki: > 100 nM

Compound: CO[C@H]1C[C@@H](C(=O)Nc2cc(C(CCC3CC3)(N[S@+]([O-])C(C)(C)C)c3cccc(C#N)c3)ccc2F)N(C(=O)Nc2ccc(Cl)cc2)C1 (stereo partly drawn) [Compound 11d, (2S,4S)-N1-(4-chlorophenyl)-N2-(5-(1-(3-cyanophenyl)-3-cyclopropyl-1-((R)-1,1-dimethylethylsulfinamido)propyl)-2-fluorophenyl)-4-methoxypyrrolidine-1,2-dicarboxamide]
Ki: > 100 nM

Compound: CO[C@H]1C[C@@H](C(=O)Nc2cc(C(N)(CCC3CC3)c3cccc(C#N)c3)ccc2F)N(C(=O)Nc2ccc(Cl)cc2)C1 (stereo partly drawn) [Compound 11e, (2S,4S)-N2-(5-((−)-1-amino-1-(3-cyanophenyl)-3-cyclopropylpropyl)-2-fluorophenyl)-N1-(4-chlorophenyl)-4-methoxypyrrolidine-1,2-dicarboxamide]
Ki: > 100 nM

Compound: CC(C)(C)[S@@+]([O-])NC(CCC1CC1)(c1cccc(C#N)c1)c1ccc(F)c(NC(=O)[C@H]2CCCN2C(=O)OCc2ccccc2)c1 (stereo partly drawn) [Compound 12b, (R)-benzyl 2-(5-((−)-1-(3-cyanophenyl)-3-cyclopropyl-1-((R)-1,1-dimethylethylsulfinamido)propyl)-2-fluorophenylcarbamoyl)pyrrolidine-1-carboxylate]
Ki: > 100 nM

Compound: N#Cc1cccc(C(N)(CCC2CC2)c2ccc(F)c(NC(=O)[C@H]3CCCN3C(=O)Nc3ccc(Cl)cn3)c2)c1 (stereo partly drawn) [Compound 13e, (R)-N2-(5-((+)-1-amino-1-(3-cyanophenyl)-3-cyclopropylpropyl)-2-fluorophenyl)-N1-(5-chloropyridin-2-yl)pyrrolidine-1,2-dicarboxamide]
Ki: > 100 nM

Compound: CC(=O)O[C@@H]1C[C@H](C(=O)Nc2cc(C(N)(CCC3CC3)c3cccc(C#N)c3)ccc2F)N(C(=O)Nc2ccc(Cl)cn2)C1 (stereo partly drawn) [Compound 14g, (3R,5R)-5-(5-((+)-1-amino-1-(3-cyanophenyl)-3-cyclopropylpropyl)-2-fluorophenylcarbamoyl)-1-(5-chloropyridin-2-ylcarbamoyl)pyrrolidin-3-yl acetate]
Ki: > 100 nM

Compound: N#Cc1cccc(C(N)(CCC2CC2)c2ccc(F)c(NC(=O)[C@H]3C[C@@H](O)CN3C(=O)Nc3ccc(Cl)cn3)c2)c1 (stereo partly drawn) [Compound 14h, (2R,4R)-N2-(5-(1-amino-1-(3-cyanophenyl)-3-cyclopropylpropyl)-2-fluorophenyl)-N1-(5-chloropyridin-2-yl)-4-hydroxypyrrolidine-1,2-dicarboxamide]
Ki: < 50 nM

Compound: CO[C@@H]1C[C@H](C(=O)Nc2cc(C(N)(CCC3CC3)c3cccc(C#N)c3)ccc2F)N(C(=O)Nc2ccc(C#N)cc2)C1 (stereo partly drawn) [Compound 15f, (2R,4R)-N2-(5-((+)-1-amino-1-(3-cyanophenyl)-3-cyclopropylpropyl)-2-fluorophenyl)-N1-(4-cyanophenyl)-4-methoxypyrrolidine-1,2-dicarboxamide]
Ki: > 100 nM

Ki: > 100 nM
Compound: COc1ccc(NC(=O)N2C[C@H](OC)C[C@@H]2C(=O)Nc2cc(C(N)(CCC3CC3)c3cccc(C#N)c3)ccc2F)cc1 (stereo partly drawn) [Compound 16b, (2R,4R)-N2-(5-((+)-1-amino-1-(3-cyanophenyl)-3-cyclopropylpropyl)-2-fluorophenyl)-4-methoxy-N1-(4-methoxyphenyl)pyrrolidine-1,2-dicarboxamide]

Compound: CO[C@@H]1C[C@H](C(=O)Nc2cc(C(N)(CCC3CC3)c3cccc(C#N)c3)ccc2F)N(C(=O)Nc2ccc(Cl)cc2)C1 (stereo partly drawn) [Compound 17b, (2R,4R)-N2-(5-((+)-1-amino-1-(3-cyanophenyl)-3-cyclopropylpropyl)-2-fluorophenyl)-4-methoxy-N1-(4-chlorophenyl)pyrrolidine-1,2-dicarboxamide]
Ki: 50 to 100 nM

Compound: CO[C@@H]1C[C@H](C(=O)Nc2cc(C(CCC3CC3)(N[S@+]([O-])C(C)(C)C)c3cccc(C#N)c3)ccc2F)N(C(=O)Nc2ccc(Cl)cn2)C1 (stereo partly drawn) [Compound 18a]
Ki: < 50 nM

Compound: CO[C@@H]1C[C@H](C(=O)Nc2cc(C(N)(CCC3CC3)c3cccc(C#N)c3)ccc2F)N(C(=O)Nc2ccc(Cl)cn2)C1 (stereo partly drawn) [Compound 18b, (2R,4R)-N2-(5-((+)-1-amino-1-(3-cyanophenyl)-3-cyclopropylpropyl)-2-fluorophenyl)-N1-(5-chloropyridin-2-yl)-4-methoxypyrrolidine-1,2-dicarboxamide]
Ki: < 50 nM

Compound: N#Cc1cccc(C(N)(CCC2CC2)c2ccc(F)c(NC(=O)[C@H]3C[C@@H](N)CN3C(=O)Nc3ccc(Cl)cc3)c2)c1 (stereo partly drawn) [Compound 19c, (2R,4R)-4-amino-N2-(5-((+)-1-amino-1-(3-cyanophenyl)-3-cyclopropylpropyl)-2-fluorophenyl)-N1-(4-chlorophenyl)pyrrolidine-1,2-dicarboxamide]
Ki: > 100 nM

Compound: N#Cc1cccc(C(N)(CCC2CC2)c2ccc(F)c(NC(=O)[C@H]3CC(=O)CN3C(=O)Nc3ccc(Cl)cc3)c2)c1 (stereo partly drawn) [Compound 20b, (R)-N2-(5-(1-amino-1-(3-cyanophenyl)-3-cyclopropylpropyl)-2-fluorophenyl)-N1-(4-chlorophenyl)-4-oxopyrrolidine-1,2-dicarboxamide]
Ki: > 100 nM

Compound: N#Cc1cccc(C(N)(CCC2CC2)c2ccc(F)c(NC(=O)[C@H]3C[C@@H](O)CN3C(=O)Nc3ccccc3)c2)c1 (stereo partly drawn) [Compound 21d, (2R,4R)-N2-(5-((+)-1-amino-1-(3-cyanophenyl)-3-cyclopropylpropyl)-2-fluorophenyl)-4-hydroxy-N1-phenylpyrrolidine-1,2-dicarboxamide]
Ki: > 100 nM

Compound: Cc1ccc(NC(=O)N2C[C@H](O)C[C@@H]2C(=O)Nc2cc(C(N)(CCC3CC3)c3cccc(C#N)c3)ccc2F)cc1 (stereo partly drawn) [Compound 22b, (2R,4R)-N2-(5-((+)-1-amino-1-(3-cyanophenyl)-3-cyclopropylpropyl)-2-fluorophenyl)-4-hydroxy-N1-p-tolylpyrrolidine-1,2-dicarboxamide]
Ki: > 100 nM

Compound: N#Cc1cccc(C(N)(CCC2CC2)c2ccc(F)c(NC(=O)[C@H]3C[C@@H](O)CN3C(=O)Nc3ccc(Br)cc3)c2)c1 (stereo partly drawn) [Compound 23b, (2R,4R)-N2-(5-((+)-1-amino-1-(3-cyanophenyl)-3-cyclopropylpropyl)-2-fluorophenyl)-N1-(4-bromophenyl)-4-hydroxypyrrolidine-1,2-dicarboxamide]
Ki: 50 to 100 nM

Compound: N#Cc1cccc(C(N)(CCC2CC2)c2ccc(F)c(NC(=O)[C@H]3C[C@@H](O)CN3C(=O)Nc3ccc(F)cc3)c2)c1 (stereo partly drawn) [Compound 24b, (2R,4R)-N2-(5-((+)-1-amino-1-(3-cyanophenyl)-3-cyclopropylpropyl)-2-fluorophenyl)-N1-(4-fluorophenyl)-4-hydroxypyrrolidine-1,2-dicarboxamide]
Ki: > 100 nM

Compound: N#Cc1cccc(C(N)(CCC2CC2)c2ccc(F)c(NC(=O)[C@H]3C[C@@H](O)CN3C(=O)Nc3ccc([N+](=O)[O-])cc3)c2)c1 (stereo partly drawn) [Compound 25b, (2R,4R)-N2-(5-((+)-1-amino-1-(3-cyanophenyl)-3-cyclopropylpropyl)-2-fluorophenyl)-4-hydroxy-N1-(4-nitrophenyl)pyrrolidine-1,2-dicarboxamide]
Ki: > 100 nM

Compound: N#Cc1cccc(C(N)(CCC2CC2)c2ccc(F)c(NC(=O)[C@H]3C[C@@H](O)CN3C(=O)Nc3cccc4ccccc34)c2)c1 (stereo partly drawn) [Compound 26b, (2R,4R)-N2-(5-((+)-1-amino-1-(3-cyanophenyl)-3-cyclopropylpropyl)-2-fluorophenyl)-4-hydroxy-N1-(naphthalen-1-yl)pyrrolidine-1,2-dicarboxamide]
Ki: > 100 nM

Compound: CC(C)(C)[S@@+]([O-])NC(CCC1CC1)(c1cccc(C#N)c1)c1ccc(F)c(NC(=O)[C@H]2C[C@@H](O)CN2C(=O)Nc2ccc(C(F)(F)F)cc2)c1 (stereo partly drawn) [Compound 27a, (2R,4R)-N2-(5-((+)-1-(3-cyanophenyl)-3-cyclopropyl-1-((R)-1,1-dimethylethylsulfinamido)propyl)-2-fluorophenyl)-4-hydroxy-N1-(4-(trifluoromethyl)phenyl)pyrrolidine-1,2-dicarboxamide]
Ki: > 100 nM

Compound: N#Cc1cccc(C(N)(CCC2CC2)c2ccc(F)c(NC(=O)[C@H]3C[C@@H](O)CN3C(=O)Nc3ccc(C(F)(F)F)cc3)c2)c1 (stereo partly drawn) [Compound 27b, (2R,4R)-N2-(5-((+)-1-amino-1-(3-cyanophenyl)-3-cyclopropylpropyl)-2-fluorophenyl)-4-hydroxy-N1-(4-(trifluoromethyl)phenyl)pyrrolidine-1,2-dicarboxamide]
Ki: > 100 nM

Compound: N#Cc1cccc(C(N)(CCC2CC2)c2ccc(F)c(NC(=O)[C@H]3C[C@@H](O)CN3C(=O)Nc3ccc(N)cc3)c2)c1 (stereo partly drawn) [Compound 28b, (2R,4R)-N2-(5-((+)-1-amino-1-(3-cyanophenyl)-3-cyclopropylpropyl)-2-fluorophenyl)-N1-(4-aminophenyl)-4-hydroxypyrrolidine-1,2-dicarboxamide]
Ki: > 100 nM

Compound: N#Cc1cccc(C(N)(CCC2CC2)c2ccc(F)c(NC(=O)[C@H]3C[C@](O)(c4ccccc4)CN3)c2)c1 (stereo partly drawn) [Compound 29d, (2R,4S)-N-(5-((−)-1-amino-1-(3-cyanophenyl)-3-cyclopropylpropyl)-2-fluorophenyl)-4-hydroxy-4-phenylpyrrolidine-2-carboxamide]
Ki: > 100 nM
